compound: CN1CCN(CC1)C2=CC(=C(C=C2)NC3=NC=C4C(=N3)N(C5=CC=CC=C5C(=O)N4C)C)OC [XMD8-85] + CS(=O)(=O)CCNCc1ccc(-c2ccc3ncnc(Nc4ccc(OCc5cccc(F)c5)c(Cl)c4)c3c2)o1 [Lapatinib] (partner 2 µM); test: relative viability (nuclei count vs DMSO), 5 days (fraction); higher = more cells survive; conditions: first compound 0.08 µM
How it was run: (§1)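 Cells from lung cancer lines were seeded into 1536-well plates and, one day later, dosed by pin tool. Treatments were either a single drug or a fixed dose of an anchor drug with five library-drug doses (not always all listed) in √10 steps. After 5 days, nuclei were stained in a one-step fixation (final 0.05% Triton X-100, 1% formaldehyde, 1 ug/ml Hoechst) and counted on 4× images, and relative viability is the treated-to-vehicle nuclei ratio, as the median of duplicate plates.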

Cell Line	relative viability
LU99A	1.11
LXF-289	0.887
NCI-H23	0.949
NCI-H322M	0.507
NCI-H358	0.438
NCI-H460	0.551
NCI-H520	0.825
NCI-H596	1.01
NCI-H647	1.08
NCI-H650	0.867
NCI-H661	0.486
NCI-H727	0.627
NCI-H838	0.942
NCI-H1355	0.956
NCI-H1437	0.785

same assay, conditions: first compound 0.253 µM

Cell Line	relative viability
LU99A	0.96
LXF-289	0.855
NCI-H23	1.05
NCI-H322M	0.569
NCI-H358	0.52
NCI-H460	0.84
NCI-H520	0.749
NCI-H596	1.03
NCI-H647	1.09
NCI-H650	0.858
NCI-H661	0.485
NCI-H727	0.792
NCI-H838	1.05
NCI-H1355	1.03
NCI-H1437	0.888

same assay, conditions: first compound 0.8 µM

Cell Line	relative viability
LU99A	1.05
LXF-289	0.892
NCI-H23	1.09
NCI-H322M	0.593
NCI-H358	0.455
NCI-H460	1.27
NCI-H520	1.03
NCI-H596	1.24
NCI-H647	1.24
NCI-H650	1.04
NCI-H661	0.404
NCI-H838	1.09
NCI-H1355	1.01
NCI-H1437	0.804

same assay, conditions: first compound 2.53 µM

Cell Line	relative viability
LU99A	1.06
LXF-289	0.903
NCI-H23	1.08
NCI-H322M	0.585
NCI-H358	0.486
NCI-H460	1.29
NCI-H520	0.906
NCI-H596	1.03
NCI-H647	1.48
NCI-H650	0.876
NCI-H727	0.731
NCI-H838	0.967
NCI-H1355	1.08
NCI-H1437	0.792

same assay, conditions: first compound 8 µM

Cell Line	relative viability
LU99A	0.882
LXF-289	0.818
NCI-H23	0.969
NCI-H322M	0.522
NCI-H358	0.405
NCI-H460	0.406
NCI-H520	0.756
NCI-H596	0.874
NCI-H647	0.638
NCI-H661	0.473
NCI-H727	0.543
NCI-H838	0.45
NCI-H1355	0.875
NCI-H1437	0.407

compound: CN1CCN(CC1)C2=CC(=C(C=C2)NC3=NC=C4C(=N3)N(C5=CC=CC=C5C(=O)N4C)C)OC [XMD8-85] + C[C@@H](Oc1cc(-c2cnn(C3CCNCC3)c2)cnc1N)c1c(Cl)ccc(F)c1Cl [Crizotinib] (partner 1 µM); test: as above; conditions: first compound 0.08 µM
How it was run: as §1

Cell Line	relative viability
LU99A	0.476
LXF-289	0.787
NCI-H23	0.4
NCI-H322M	0.872
NCI-H358	0.674
NCI-H460	0.996
NCI-H520	0.796
NCI-H596	0.991
NCI-H647	1.12
NCI-H650	0.6
NCI-H661	1.03
NCI-H727	0.78
NCI-H838	0.774
NCI-H1355	1.16
NCI-H1437	0.76

same assay, conditions: first compound 0.253 µM

Cell Line	relative viability
LU99A	0.484
LXF-289	0.798
NCI-H23	0.434
NCI-H322M	1.03
NCI-H358	0.465
NCI-H460	0.83
NCI-H520	0.572
NCI-H596	0.906
NCI-H647	1.1
NCI-H650	0.603
NCI-H661	1.16
NCI-H727	0.777
NCI-H838	0.808
NCI-H1355	1.07
NCI-H1437	0.923

same assay, conditions: first compound 0.8 µM

Cell Line	relative viability
LU99A	0.687
LXF-289	0.809
NCI-H23	0.472
NCI-H322M	0.929
NCI-H358	0.816
NCI-H460	1.19
NCI-H520	0.914
NCI-H596	0.875
NCI-H647	1.05
NCI-H650	0.712
NCI-H661	0.905
NCI-H727	0.755
NCI-H838	1.07
NCI-H1355	1.06
NCI-H1437	1.14

same assay, conditions: first compound 2.53 µM

Cell Line	relative viability
LU99A	0.626
LXF-289	0.804
NCI-H23	0.387
NCI-H322M	0.996
NCI-H358	0.506
NCI-H460	0.619
NCI-H520	0.673
NCI-H596	0.789
NCI-H647	1.14
NCI-H650	0.57
NCI-H661	1.1
NCI-H727	0.595
NCI-H838	0.815
NCI-H1355	0.989
NCI-H1437	0.856

same assay, conditions: first compound 8 µM

Cell Line	relative viability
LU99A	0.367
LXF-289	0.658
NCI-H23	0.217
NCI-H322M	0.55
NCI-H358	0.248
NCI-H460	0.0598
NCI-H520	0.324
NCI-H596	0.781
NCI-H647	0.213
NCI-H650	0.345
NCI-H661	0.854
NCI-H727	0.358
NCI-H838	0.292
NCI-H1355	0.77
NCI-H1437	0.491

compound: CN1CCN(CC1)C2=CC(=C(C=C2)NC3=NC=C4C(=N3)N(C5=CC=CC=C5C(=O)N4C)C)OC [XMD8-85] + C[C@]1(O)C[C@@H](c2nc(-c3ccc4ccc(-c5ccccc5)nc4c3)c3c(N)nccn32)C1 [Linsitinib] (partner 1 µM); test: as above; conditions: first compound 0.08 µM
How it was run: as §1

Cell Line	relative viability
LU99A	0.451
LXF-289	0.916
NCI-H23	0.545
NCI-H322M	0.853
NCI-H358	0.756
NCI-H460	0.594
NCI-H520	0.86
NCI-H596	0.956
NCI-H647	1.29
NCI-H650	0.925
NCI-H661	0.523
NCI-H727	0.259
NCI-H838	0.979
NCI-H1355	0.807
NCI-H1437	0.902

same assay, conditions: first compound 0.253 µM

Cell Line	relative viability
LU99A	0.566
LXF-289	0.927
NCI-H23	0.611
NCI-H322M	0.986
NCI-H358	0.832
NCI-H460	0.904
NCI-H520	0.914
NCI-H596	1.12
NCI-H647	1.35
NCI-H650	0.74
NCI-H661	0.518
NCI-H727	0.314
NCI-H838	0.958
NCI-H1355	0.913
NCI-H1437	0.944

same assay, conditions: first compound 0.8 µM

Cell Line	relative viability
LU99A	0.545
LXF-289	0.964
NCI-H23	0.547
NCI-H322M	0.864
NCI-H460	0.868
NCI-H520	1.16
NCI-H596	1.08
NCI-H647	1.55
NCI-H650	0.811
NCI-H661	0.523
NCI-H727	0.308
NCI-H838	1.2
NCI-H1355	0.828
NCI-H1437	1.09

same assay, conditions: first compound 2.53 µM

Cell Line	relative viability
LU99A	0.531
LXF-289	1.01
NCI-H23	0.513
NCI-H322M	0.825
NCI-H358	0.643
NCI-H460	0.821
NCI-H520	0.849
NCI-H596	0.961
NCI-H647	0.862
NCI-H650	0.826
NCI-H661	0.579
NCI-H727	0.231
NCI-H838	1
NCI-H1355	0.715
NCI-H1437	0.92

same assay, conditions: first compound 8 µM

Cell Line	relative viability
LU99A	0.459
LXF-289	0.883
NCI-H322M	0.933
NCI-H358	0.442
NCI-H460	0.262
NCI-H520	0.67
NCI-H596	0.628
NCI-H647	0.634
NCI-H650	0.371
NCI-H661	0.448
NCI-H727	0.215
NCI-H838	0.507
NCI-H1355	0.829
NCI-H1437	0.413

compound: O=C(O)C(Cc1ccccc1[N+](=O)[O-])=NNc1nc(-c2ccc(Cl)c(Cl)c2)cs1 (mixture of isomers) [4EGI-1] + COc1cccc2cc(-c3nc([C@H]4CC[C@H](C(=O)O)CC4)n4ncnc(N)c34)[nH]c12 [OSI-027] (partner 0.5 µM); test: as above; conditions: first compound 0.5 µM
How it was run: as §1

Cell Line	relative viability
LU99A	0.306
LXF-289	0.825
NCI-H23	0.612
NCI-H322M	0.63
NCI-H358	0.778
NCI-H460	0.684
NCI-H520	0.262
NCI-H596	0.844
NCI-H647	0.7
NCI-H650	0.6
NCI-H661	0.713
NCI-H727	0.669
NCI-H838	0.419
NCI-H1355	0.397
NCI-H1437	0.945

same assay, conditions: first compound 1.581 µM

Cell Line	relative viability
LU99A	0.275
LXF-289	0.809
NCI-H358	0.624
NCI-H520	0.325
NCI-H596	0.579
NCI-H661	0.583
NCI-H727	0.652
NCI-H1355	0.354
NCI-H1437	0.853

same assay, conditions: first compound 5 µM

Cell Line	relative viability
LU99A	0.269
LXF-289	0.758
NCI-H23	0.614
NCI-H322M	0.546
NCI-H358	1.08
NCI-H460	0.668
NCI-H520	0.314
NCI-H596	0.905
NCI-H647	0.739
NCI-H650	0.565
NCI-H661	0.649
NCI-H727	0.538
NCI-H838	0.403
NCI-H1355	0.384
NCI-H1437	0.886

same assay, conditions: first compound 15.81 µM

Cell Line	relative viability
LU99A	0.274
LXF-289	0.756
NCI-H23	0.453
NCI-H322M	0.532
NCI-H358	0.391
NCI-H460	0.3
NCI-H520	0.345
NCI-H596	0.62
NCI-H647	0.671
NCI-H650	0.5
NCI-H661	0.383
NCI-H727	0.552
NCI-H838	0.362
NCI-H1355	0.291
NCI-H1437	0.743

same assay, conditions: first compound 50 µM

Cell Line	relative viability
LU99A	0.288
LXF-289	0.519
NCI-H23	0.417
NCI-H322M	0.223
NCI-H358	0.106
NCI-H460	0.0347
NCI-H520	0.179
NCI-H596	0.518
NCI-H647	0.399
NCI-H650	0.443
NCI-H661	0.245
NCI-H727	0.451
NCI-H838	0.218
NCI-H1355	0.264
NCI-H1437	0.256

Reference: the supplement of paper PMC10307832
